Paper PMC3245313, “Helicobacter pylori versus the Host: Remodeling of the Bacterial Outer Membrane Is Required for Survival in the Gastric Mucosa” (PLoS Pathogens, 2011)
Read-outs that look alike come from different tables or passages of the source. Where a SMILES comes first, the peptide text is derived from it. Bridges are numbered along the chain shown (N, C = ends). Where no end group is shown, it is not given here.

Key:
[1] = tested on: H. pylori X47 Wild Type; type: cell-based, Helicobacter pylori; settings: Polymyxin B E-Test strips on TSA with 5% blood, average of three experiments
[2] = tested on: H. pylori X47 lpxE; type: cell-based, Helicobacter pylori; settings: Polymyxin B E-Test strips on TSA with 5% blood, average of three experiments
[3] = tested on: H. pylori J99 Wild Type; type: cell-based, Helicobacter pylori; settings: Polymyxin B E-Test strips on TSA with 5% blood, average of three experiments
[4] = tested on: H. pylori J99 lpxR
[5] = tested on: H. pylori X47 lpxF, lpxF+; type: cell-based, Helicobacter pylori; settings: Polymyxin B E-Test strips on TSA with 5% blood, average of three experiments
[6] = tested on: H. pylori X47 lpxE/F; type: cell-based, Helicobacter pylori; settings: Polymyxin B E-Test strips on TSA with 5% blood, average of three experiments
[7] = tested on: H. pylori B128 lpxF; type: cell-based, Helicobacter pylori; settings: Polymyxin B E-Test strips on TSA with 5% blood, average of three experiments
[8] = tested on: H. pylori B128 lpxE; type: cell-based, Helicobacter pylori; settings: Polymyxin B E-Test strips on TSA with 5% blood, average of three experiments
[9] = tested on: H. pylori J99 lpxE
[10] = tested on: H. pylori J99 lpxE; type: cell-based, Helicobacter pylori
[11] = tested on: H. pylori J99 lpxE/F
[12] = tested on: H. pylori B128 Wild Type; type: cell-based, Helicobacter pylori; settings: Polymyxin B E-Test strips on TSA with 5% blood, average of three experiments
[13] = tested on: H. pylori J99 lpxE/F; type: cell-based, Helicobacter pylori
[14] = tested on: H. pylori wild type strains; settings: cited from earlier work
Method: Resistance to CAMPs is of great importance to all mucosal pathogens. This is especially true for H. pylori whose only known reservoir is the human gastric mucosal surface. H. pylori is highly resistant to the CAMP polymyxin B (PMB) with the minimal inhibitory concentration (MIC) of wild type strains ranging from 250–1000 µg/ml peptide. […] MICs were determined for all strains using PMB Etest strips. H. pylori wild type strain J9 ...

[15] = tested on: H. pylori J99 Wild Type
[16] = tested on: H. pylori J99 lpxR; type: cell-based, Helicobacter pylori; settings: Polymyxin B E-Test strips on TSA with 5% blood, average of three experiments
[17] = tested on: H. pylori J99 lpxF, lpxF+; type: cell-based, Helicobacter pylori; settings: Polymyxin B E-Test strips on TSA with 5% blood, average of three experiments
[18] = tested on: H. pylori X47 lpxF; type: cell-based, Helicobacter pylori; settings: Polymyxin B E-Test strips on TSA with 5% blood, average of three experiments
[19] = tested on: H. pylori J99 lpxF; type: cell-based, Helicobacter pylori
[20] = tested on: H. pylori B128 lpxE/F; type: cell-based, Helicobacter pylori; settings: Polymyxin B E-Test strips on TSA with 5% blood, average of three experiments
[21] = tested on: H. pylori B128 lpxE, lpxE+; type: cell-based, Helicobacter pylori; settings: Polymyxin B E-Test strips on TSA with 5% blood, average of three experiments
[22] = tested on: H. pylori J99 lpxF

For polymyxin B, the “Polymyxin MIC” value [1] was 768.0 ± 0.0 µg/mL, the “Polymyxin MIC” value [2] was 37.3 ± 9.2 µg/mL and the “Polymyxin MIC” value [3] was 469.3 ± 73.9 µg/mL. For the same compound, the “Minimal Inhibitory Concentration (MIC)” value [4] was over 250 µg/mL, the “Polymyxin MIC” value [5] was 682.7 ± 147.8 µg/mL and the “Polymyxin MIC” value [6] was 0.55 ± 0.08 µg/mL. The “Polymyxin MIC” value [7] was 1.8 ± 0.3 µg/mL, the “Polymyxin MIC” value [8] was 26.7 ± 4.6 µg/mL and the “Minimal Inhibitory Concentration (MIC)” value [9] was 22 ± 2 µg/mL. For the same compound, the “fold decrease in resistance (increase in sensitivity) to PMB” value ([10]; J99 lpxE mutant versus wild type J99, Etest MICs) was 16 fold, the “Polymyxin MIC” value ([10]; J99 lpxE, Polymyxin B E-Test strips on TSA with 5% blood, average of three experiments) was 29.3 ± 4.6 µg/mL and the “Minimal Inhibitory Concentration (MIC)” value [11] was 0.6 ± 0.1 µg/mL. The “Polymyxin MIC” value [12] was 213.3 ± 37.0 µg/mL, the “fold decrease in resistance (increase in sensitivity) to PMB” value ([13]; J99 double lpxE/F mutant versus wild type J99, Etest MICs) was 1020 fold and the “Polymyxin MIC” value ([13]; J99 lpxE/F, Polymyxin B E-Test strips on TSA with 5% blood, average of three experiments) was 0.46 ± 0.03 µg/mL. For the same compound, the “Minimal Inhibitory Concentration (MIC)” value [14] was 250 to 1000 µg/mL, the “Minimal Inhibitory Concentration (MIC)” value [15] was over 250 µg/mL and the “Polymyxin MIC” value [16] was 512.0 ± 0.0 µg/mL. For the same compound, the “Polymyxin MIC” value ([16]; listed as PMB) was 512 ± 0.0 µg/mL, the “Polymyxin MIC” value [17] was 512.0 ± 0.0 µg/mL and the “Polymyxin MIC” value [18] was 2.3 ± 0.6 µg/mL. For the same compound, the “fold decrease in resistance (increase in sensitivity) to PMB” value ([19]; J99 lpxF mutant versus wild type J99, Etest MICs) was 360 fold, the “Polymyxin MIC” value ([19]; J99 lpxF, Polymyxin B E-Test strips on TSA with 5% blood, average of three experiments) was 1.3 ± 0.3 µg/mL and the “Polymyxin MIC” value [20] was 0.61 ± 0.04 µg/mL. For the same compound, the “Polymyxin MIC” value [21] was 234.7 ± 37.0 µg/mL and the “Minimal Inhibitory Concentration (MIC)” value [22] was 3.8 ± 0.3 µg/mL.
For “GIGDPVTCLKSGAICHPVFCPRRYKQIGTCGLPGTKCCKKP (disulfide 8-37, 15-30, 20-38 (inferred)) [HBD2]”, the “Minimal Inhibitory Concentration (MIC)” value ([4]; J99 lpxR, 48 h) was over 25 µg/mL, the “Minimal Inhibitory Concentration (MIC)” value ([9]; J99 lpxE, 48 h) was 23 ± 3 µg/mL and the “Minimal Inhibitory Concentration (MIC)” value ([11]; J99 lpxE/F, 48 h) was 5.0 ± 1.0 µg/mL. For the same compound, the “Minimal Inhibitory Concentration (MIC)” value ([15]; J99 Wild Type, 48 h) was over 25 µg/mL and the “Minimal Inhibitory Concentration (MIC)” value ([22]; J99 lpxF, 48 h) was 12 ± 1 µg/mL.
In the case of “AKRHHGYKRKFH-NH2 (C-terminus assumed) [P113]”, the “Minimal Inhibitory Concentration (MIC)” value ([4]; J99 lpxR, 48 h) is reported as over 400 µg/mL, the “Minimal Inhibitory Concentration (MIC)” value ([9]; J99 lpxE, 48 h) is reported as 341 ± 14 µg/mL and the “Minimal Inhibitory Concentration (MIC)” value ([11]; J99 lpxE/F, 48 h) is reported as 141 ± 14 µg/mL. The “Minimal Inhibitory Concentration (MIC)” value ([15]; J99 Wild Type, 48 h) was over 400 µg/mL and the “Minimal Inhibitory Concentration (MIC)” value ([22]; J99 lpxF, 48 h) was 178 ± 3 µg/mL.
In the case of `CC[C@H](C)[C@H](NC(=O)[C@H](CCCCN)NC(=O)[C@H](CCC(=O)O)NC(=O)[C@H](CCCCN)NC(=O)[C@H](CO)NC(=O)[C@H](CCCCN)NC(=O)[C@H](CCCNC(=N)N)NC(=O)[C@H](Cc1ccccc1)NC(=O)[C@H](Cc1ccccc1)NC(=O)[C@H](CC(=O)O)NC(=O)CNC(=O)[C@H](CC(C)C)NC(=O)[C@@H](N)CC(C)C)C(=O)NCC(=O)N[C@@H](CCCCN)C(=O)N[C@@H](CCC(=O)O)C(=O)N[C@@H](Cc1ccccc1)C(=O)N[C@@H](CCCCN)C(=O)N[C@@H](CCCNC(=N)N)C(=O)N[C@H](C(=O)N[C@H](C(=O)N[C@@H](CCC(N)=O)C(=O)N[C@@H](CCCNC(=N)N)C(=O)N[C@H](C(=O)N[C@@H](CCCCN)C(=O)N[C@@H](CC(=O)O)C(=O)N[C@@H](Cc1ccccc1)C(=O)N[C@@H](CC(C)C)C(=O)N[C@@H](CCCNC(=N)N)C(=O)N[C@@H](CC(N)=O)C(=O)N[C@@H](CC(C)C)C(=O)N[C@H](C(=O)N1CCC[C@H]1C(=O)N[C@@H](CCCNC(=N)N)C(=O)N[C@H](C(=O)N[C@@H](CCC(=O)O)C(=O)N[C@@H](CO)C(=O)O)[C@@H](C)O)C(C)C)[C@@H](C)CC)C(C)C)[C@@H](C)CC` [LL37], the “Minimal Inhibitory Concentration (MIC)” value ([4]; J99 lpxR, 48 h) is reported as 41 ± 6 µg/mL, the “Minimal Inhibitory Concentration (MIC)” value ([9]; J99 lpxE, 48 h) is reported as 40 ± 0 µg/mL and the “Minimal Inhibitory Concentration (MIC)” value ([11]; J99 lpxE/F, 48 h) is reported as 11 ± 1 µg/mL. The “Minimal Inhibitory Concentration (MIC)” value ([15]; J99 Wild Type, 48 h) was 40 ± 5 µg/mL and the “Minimal Inhibitory Concentration (MIC)” value ([22]; J99 lpxF, 48 h) was 19 ± 2 µg/mL.
For `CC[C@H](C)[C@@H]1NC(=O)[C@@H]2CSSC[C@@H]3NC(=O)[C@H](Cc4ccccc4)NC(=O)[C@H](C)NC(=O)[C@H](Cc4c[nH]c5ccccc45)NC(=O)[C@H](CC(C)C)NC(=O)[C@H](CCCNC(=N)N)NC(=O)CNC(=O)[C@H](CCC(N)=O)NC(=O)[C@H](Cc4ccc(O)cc4)NC(=O)[C@H]([C@@H](C)CC)NC(=O)[C@H](CSSC[C@H](NC(=O)[C@H](Cc4ccc(O)cc4)NC(=O)[C@@H](N)CSSC[C@@H](C(=O)O)NC3=O)C(=O)N[C@@H](CCCNC(=N)N)C(=O)N[C@@H]([C@@H](C)CC)C(=O)N3CCC[C@H]3C(=O)N[C@@H](C)C(=O)N2)NC(=O)[C@H]([C@@H](C)O)NC(=O)CNC(=O)[C@H](Cc2ccc(O)cc2)NC(=O)[C@H](CCCNC(=N)N)NC(=O)[C@H](CCCNC(=N)N)NC(=O)[C@H](CCC(=O)O)NC(=O)CNC(=O)[C@H](C)NC1=O` [HNP2] (H-CYCRIPACIAGERRYGTCIYQGRLWAFCC-OH; disulfide 1-29, 3-18, 8-28 (inferred); N-terminus and C-terminus assumed), the “Minimal Inhibitory Concentration (MIC)” value ([4]; J99 lpxR, 48 h) was over 25 µg/mL, the “Minimal Inhibitory Concentration (MIC)” value ([9]; J99 lpxE, 48 h) was over 25 µg/mL and the “Minimal Inhibitory Concentration (MIC)” value ([11]; J99 lpxE/F, 48 h) was over 25 µg/mL. For the same compound, the “Minimal Inhibitory Concentration (MIC)” value ([15]; J99 Wild Type, 48 h) was over 25 µg/mL and the “Minimal Inhibitory Concentration (MIC)” value ([22]; J99 lpxF, 48 h) was over 25 µg/mL.
For AKKVFKRLEKLFSKIQNDK [HP2.20], the “Minimal Inhibitory Concentration (MIC)” value ([4]; J99 lpxR, 48 h) was over 1250 µg/mL, the “Minimal Inhibitory Concentration (MIC)” value ([9]; J99 lpxE, 48 h) was 583 ± 29 µg/mL and the “fold decrease in resistance” value ([11]; J99 double lpxE/F mutant versus wild type, broth dilution MICs) was at least 60 fold. The “Minimal Inhibitory Concentration (MIC)” value ([11]; J99 lpxE/F, 48 h) was 18 ± 3 µg/mL, the “Minimal Inhibitory Concentration (MIC)” value ([15]; J99 Wild Type, 48 h) was over 1250 µg/mL and the “Minimal Inhibitory Concentration (MIC)” value ([22]; J99 lpxF, 48 h) was 60 ± 0 µg/mL.
